Experimental data from patent US20080014186A1, “Hla-A24 or Hla-A2 Binding Peptides of Parathyroid Hormone-Related Protein” (GREEN PEPTIDE CO., LTD., priority 2004, published 2008).

How the values were obtained:
[1] = test system: PBMCs of HLA-A24^+ healthy donors and prostate cancer patients; assay: Assay for peptide-specific CTLs in PBMCs (IFN-γ ELISA, peptide-pulsed C1R-A24 cells); format: cell-based, human; conditions: for IFN-γ production: C1R-A24 cells, HIV peptide background subtracted
Procedure: To investigate the immunogenicity of these four PTHrP peptides, the PBMCs of 10 HLA-A24^+ healthy donors and 10 HLA-A24^+ prostate cancer patients were stimulated with each of the four PTHrP peptides and were examined for their IFN-γ production in response to C1R-A24 cells, which were pre-pulsed with either a corresponding PTHrP peptide or the HIV peptide. Flu- and EBV-derived peptides were used as controls.
The assay for detection of peptide-specific CTLs in PBMCs was performed according to a previously reported method. In brief, PBMCs (1 X 10^5 cells/well) were incubated with […] of each peptide in a U-bottom-type 96-well microculture plate (Nunc, Roskilde, Denmark) at a volume of 200 μl of culture medium. The culture medium consisted of 45% RPMI-1640, 45% AIM-V medium (Gibco BRL), 10% FCS, 100 U/ml of IL-2, and 0.1 mM MEM nonessential amino acid solution (Gibco, BRL). Half of the culture medium was removed and replaced with new medium containing a corresponding peptide (20 μg/ml) every 3 days. On the 15th day of culture, the cultured cells were separated into 4 wells, and two wells were used for PTHrP peptide-pulsed C1R-A24 cells, and the other two wells were used for the HIV peptide-pulsed C1R-A24 cells. After an 18-hr incubation period, the supernatants were collected, and the level of IFN-γ was determined by ELISA (limit of sensitivity: 10 pg/ml).
The assay was carried out in quadruplicate, and the mean of two wells which show the highest significance compared to the control is shown in Table 1.
It was then determined whether PBMCs stimulated by either the PTHrP 36-44 or the PTHrP 102-111 peptide could induce prostate cancer-reactive CTLs from HLA-A24^+ healthy donors and prostate cancer patients. PBMCs from HLA-A24^+ healthy donors and prostate cancer patients were repeatedly stimulated with these PTHrP peptides. On day 15, half of the cultured cells were harvested, pooled from 4 wells, and cultured with C1R-A24 cells, which were pre-pulsed with the HIV peptide (open symbol) and the indicated PTHrP peptide (closed symbol) for 18-hr. The levels of IFN-γ in the supernatants were then determined by ELISA.

[2] = test system: IgG in plasma of HLA-A24^+ healthy donors and prostate cancer patients; assay: Peptide-specific IgG in plasma by ELISA (HLA-A24-binding PTHrP peptides); set-up: species or system human; conditions: for IgG reactive to the peptide in plasma: 1:100-diluted plasma
Excerpt: The inventors previously reported that IgGs reactive to CTL epitope peptides were detected in healthy donors and patients with various types of cancers. IgGs reactive to prostate-related antigens were also detected in healthy donors and prostate cancer patients. It was examined, therefore, whether IgG reactive to the four PTHrP-derived peptides, PTHrP 36-44, PTHrP 102-111, PTHrP 25-34, and PTHrP 110-119, could be detected in the plasma of cancer patients and healthy donors.
Peptide-specific IgG levels in the plasma were measured by ELISA, as previously reported. In brief, peptide (20 μg/well)-immobilized plates were blocked with Block Ace (Yukijirushi, Tokyo, Japan) and washed with 0.05% Tween20-PBS, after which 100 μl/well of plasma sample diluted with 0.05% Tween20-Block Ace was added to the plate. After 2 hours incubation at 37° C., the plates were washed and further incubated for 2 hours with a 1:1000-diluted rabbit anti-human IgG (γ-chain-specific) (DAKO, Glostrup, Denmark). The plates were washed, and then 100 μl of 1:100-diluted goat anti-rabbit IgG-conjugated horseradish peroxidase (EnVision, DAKO) was added to each well, and the plates were then incubated at room temperature for 40 min. After the plates were washed once, 100 μl/well of tetramethyl benzidine substrate solution (KPL, Guildford, UK) was added, and the reaction was stopped by the addition of 1 M phosphoric acid. The values are shown as optical density (OD) units/ml, and responses to the HIV peptide were subtracted. IgG reactive to a corresponding PTHrP peptide was judged to be positive when the difference of the OD in 1:100-diluted plasma exceeded 0.05. The results that IgG reactive to either the PTHrP102-111 or the […] peptide was detected in 8 of 10 healthy donors and in 7 of 10 prostate cancers are shown in Table 2 hereinafter.
To confirm the specificity of IgG to the indicated PTHrP peptide, 100 μl of sample plasma from either HD #1 and Pt #6 was cultured in a plate pre-coated with either a corresponding PTHrP peptide or an irrelevant PTHrP peptide. Thereafter, the levels of IgG reactive to the PTHrP 102-111 peptide or the PTHrP 110-119 peptide in the resulting supernatants were determined by ELISA.

[3] = HLA-A24^+ prostate cancer patient #1
[4] = HLA-A24^+ prostate cancer patient #2
[5] = HLA-A24^+ prostate cancer patient #3
[6] = HLA-A24^+ prostate cancer patient #4
[7] = HLA-A24^+ prostate cancer patient #5
[8] = HLA-A24^+ prostate cancer patient #6
[9] = HLA-A24^+ prostate cancer patient #7
[10] = HLA-A24^+ prostate cancer patient #8
[11] = HLA-A24^+ prostate cancer patient #9
[12] = HLA-A24^+ prostate cancer patient #10
[13] = HLA-A24^+ prostate cancer patients

KVETYKEQPL [PTHrP 110-119]
IFN-γ production ([1]; HLA-A24^+ healthy donor #1): 394 pg/mL | IFN-γ production ([1]; HLA-A24^+ healthy donor #2): 17 pg/mL | IFN-γ production ([1]; HLA-A24^+ healthy donor #3): 20 pg/mL | IFN-γ production ([1]; HLA-A24^+ healthy donor #4): 2 pg/mL | IFN-γ production ([1]; HLA-A24^+ healthy donor #5): 38 pg/mL | IFN-γ production ([1]; HLA-A24^+ healthy donor #6): 357 pg/mL | IFN-γ production ([1]; HLA-A24^+ healthy donor #7): 0 pg/mL | IFN-γ production ([1]; HLA-A24^+ healthy donor #8): 1017 pg/mL | IFN-γ production ([1]; HLA-A24^+ healthy donor #9): 61 pg/mL | IFN-γ production ([1]; HLA-A24^+ healthy donor #10): 0 pg/mL | induced peptide-specific CTLs, number of donors ([1]; HLA-A24^+ healthy donors): 3 of 10 | Total (donors with significant peptide-specific IFN-γ production / donors tested) ([1]; HLA-A24^+ healthy donors, p < 0.05): 3/10 | IFN-γ production [1, 3]: 0 pg/mL | IFN-γ production [1, 4]: 9 pg/mL | IFN-γ production [1, 5]: 38 pg/mL | IFN-γ production [1, 6]: 19 pg/mL | IFN-γ production [1, 7]: 10 pg/mL | IFN-γ production [1, 8]: 14 pg/mL | IFN-γ production [1, 9]: 0 pg/mL | IFN-γ production [1, 10]: 23 pg/mL | IFN-γ production [1, 11]: 0 pg/mL | IFN-γ production [1, 12]: 118 pg/mL | induced peptide-specific CTLs (peptide-specific IFN-γ production), number of patients [1, 13]: 1 of 10 | Total (patients with significant peptide-specific IFN-γ production / patients tested) ([1]; HLA-A24^+ prostate cancer patients, p < 0.05): 1/10 | IgG reactive to the peptide in plasma ([2]; HLA-A24^+ healthy donor #1): + (IgG reactive to a corresponding peptide was judged to be positive when the difference of the OD in 1:100-diluted plasma exceeded 0.05.) | IgG reactive to the peptide in plasma ([2]; HLA-A24^+ healthy donor #2): + (IgG reactive to a corresponding peptide was judged to be positive when the difference of the OD in 1:100-diluted plasma exceeded 0.05.) | IgG reactive to the peptide in plasma ([2]; HLA-A24^+ healthy donor #3): + (IgG reactive to a corresponding peptide was judged to be positive when the difference of the OD in 1:100-diluted plasma exceeded 0.05.) | IgG reactive to the peptide in plasma ([2]; HLA-A24^+ healthy donor #4): − (IgG reactive to a corresponding peptide was judged to be positive when the difference of the OD in 1:100-diluted plasma exceeded 0.05.) | IgG reactive to the peptide in plasma ([2]; HLA-A24^+ healthy donor #5): + (IgG reactive to a corresponding peptide was judged to be positive when the difference of the OD in 1:100-diluted plasma exceeded 0.05.) | IgG reactive to the peptide in plasma ([2]; HLA-A24^+ healthy donor #6): − (IgG reactive to a corresponding peptide was judged to be positive when the difference of the OD in 1:100-diluted plasma exceeded 0.05.) | IgG reactive to the peptide in plasma ([2]; HLA-A24^+ healthy donor #7): + (IgG reactive to a corresponding peptide was judged to be positive when the difference of the OD in 1:100-diluted plasma exceeded 0.05.) | IgG reactive to the peptide in plasma ([2]; HLA-A24^+ healthy donor #8): + (IgG reactive to a corresponding peptide was judged to be positive when the difference of the OD in 1:100-diluted plasma exceeded 0.05.) | IgG reactive to the peptide in plasma ([2]; HLA-A24^+ healthy donor #9): + (IgG reactive to a corresponding peptide was judged to be positive when the difference of the OD in 1:100-diluted plasma exceeded 0.05.) | IgG reactive to the peptide in plasma ([2]; HLA-A24^+ healthy donor #10): + (IgG reactive to a corresponding peptide was judged to be positive when the difference of the OD in 1:100-diluted plasma exceeded 0.05.) | IgG reactive to the peptide detected, number of donors ([2]; HLA-A24^+ healthy donors): 8 of 10 | Total (IgG-positive donors / donors tested) ([2]; HLA-A24^+ healthy donors): 8/10 | IgG reactive to the peptide in plasma [2, 3]: + (IgG reactive to a corresponding peptide was judged to be positive when the difference of the OD in 1:100-diluted plasma exceeded 0.05.) | IgG reactive to the peptide in plasma [2, 4]: + (IgG reactive to a corresponding peptide was judged to be positive when the difference of the OD in 1:100-diluted plasma exceeded 0.05.) | IgG reactive to the peptide in plasma [2, 5]: − (IgG reactive to a corresponding peptide was judged to be positive when the difference of the OD in 1:100-diluted plasma exceeded 0.05.) | IgG reactive to the peptide in plasma [2, 6]: − (IgG reactive to a corresponding peptide was judged to be positive when the difference of the OD in 1:100-diluted plasma exceeded 0.05.) | IgG reactive to the peptide in plasma [2, 7]: − (IgG reactive to a corresponding peptide was judged to be positive when the difference of the OD in 1:100-diluted plasma exceeded 0.05.) | IgG reactive to the peptide in plasma [2, 8]: + (IgG reactive to a corresponding peptide was judged to be positive when the difference of the OD in 1:100-diluted plasma exceeded 0.05.) | IgG reactive to the peptide in plasma [2, 9]: + (IgG reactive to a corresponding peptide was judged to be positive when the difference of the OD in 1:100-diluted plasma exceeded 0.05.) | IgG reactive to the peptide in plasma [2, 10]: + (IgG reactive to a corresponding peptide was judged to be positive when the difference of the OD in 1:100-diluted plasma exceeded 0.05.) | IgG reactive to the peptide in plasma [2, 11]: + (IgG reactive to a corresponding peptide was judged to be positive when the difference of the OD in 1:100-diluted plasma exceeded 0.05.) | IgG reactive to the peptide in plasma [2, 12]: + (IgG reactive to a corresponding peptide was judged to be positive when the difference of the OD in 1:100-diluted plasma exceeded 0.05.) | IgG reactive to the peptide detected, number of patients [2, 13]: 7 of 10 | Total (IgG-positive patients / patients tested) [2, 13]: 7/10 | Peptide-specific absorption of IgG (level after culturing plasma in corresponding peptide-coated wells) ([2]; plasma from HD #1 and Pt #6, FIG. 3B): significantly diminished
